The record followed here is US9902739B2, “Small molecule inhibitors of G protein coupled receptor 6 kinases polypeptides” (Mayo Foundation for Medical Education and Research, priority 2014, dated 2018).

The term IC50 denotes the point on the concentration scale where inhibition reaches its midpoint.

Structures are written as SMILES.

In the assay the target is T1, GRK6, recombinant full-length GST-tagged human protein (Homo sapiens, UniProt P43250).
T1 construct: Enzyme: 20 nM GRK6, recombinant full-length GST-tagged human protein; GST
T1 sequence (P43250 whole entry): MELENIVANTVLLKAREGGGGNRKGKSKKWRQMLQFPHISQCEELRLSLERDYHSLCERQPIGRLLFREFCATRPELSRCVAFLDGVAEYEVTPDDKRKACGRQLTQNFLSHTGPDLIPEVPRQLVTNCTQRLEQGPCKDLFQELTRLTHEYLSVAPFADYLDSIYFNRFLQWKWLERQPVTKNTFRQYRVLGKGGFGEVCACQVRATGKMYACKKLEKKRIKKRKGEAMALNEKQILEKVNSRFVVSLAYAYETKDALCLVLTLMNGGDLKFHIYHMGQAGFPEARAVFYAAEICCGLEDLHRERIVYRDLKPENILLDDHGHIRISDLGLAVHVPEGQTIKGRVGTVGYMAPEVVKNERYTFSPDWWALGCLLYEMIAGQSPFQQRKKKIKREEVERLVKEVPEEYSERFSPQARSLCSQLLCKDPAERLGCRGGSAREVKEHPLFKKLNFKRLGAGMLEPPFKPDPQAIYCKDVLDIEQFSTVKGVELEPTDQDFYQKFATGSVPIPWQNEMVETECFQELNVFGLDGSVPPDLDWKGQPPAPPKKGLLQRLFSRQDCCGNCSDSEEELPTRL
The experiment in a line: GRK6 assay, IC50 determination (8-point concentration-response). It counts as biochemical. As for the experimental part:
The following assay conditions were used.
Buffer: 50 mM TRIS-HCl, pH 7.5, 5 mM MgCl2, 2 mM DTT, 0.01% Triton X-100, 10 μM Na3VO4, 10 μM b-GP, 1% DMSO
Enzyme: 20 nM GRK6, recombinant full-length GST-tagged human protein
Peptide substrate (Peptide 216): 1 μM
One hundred two compounds (1-1-1-102) were further characterized by determining IC50 values in a GRK6 assay. This screen has been previously described in WO 2013/063458, which is incorporated by reference in its entirety herein. Briefly, the following activities were performed: 8-point concentration-response determinations in singlicate wells (top concentration=60 μM, 3-fold dilution steps); Repeat tests for QC failed or inconclusive compounds; and Repeat tests (titrate down) for compounds with >50% inhibition at all tested concentrations.
Twelve compounds (2-1-2-12) were further characterized by determining the IC50 values in a GRK6 assay. This screen has been previously described in WO 2013/063458, which is incorporated by reference in its entirety herein. Specific activities were performed as described above (Example 18).
Thirty-six compounds (3-1-3-36) were further characterized by determining the IC50 values in a GRK6 assay. This screen has been previously described in WO 2013/063458, which is incorporated by reference in its entirety herein. Specific activities were performed as described above (Example 18).
Fifty-four compounds (4-1-4-54) were further characterized by determining the IC50 values in a GRK6 assay. This screen has been previously described in WO 2013/063458, which is incorporated by reference in its entirety herein. Specific activities were performed as described above (Example 18).

Setting [1] is: Series 3 (Table 13), conditions as Example 18.
The mark [2] stands for this setting: Series 1 (Table 11), 20 nM GRK6, ATP 12 μM (Km), Peptide 216 1 μM, incubation 7 h.
Setting [3] is: Series 4 (Table 14), conditions as Example 18.
[4] abbreviates: Series 2 (Table 12), conditions as Example 18.

Consider `Clc1cc(Cl)cc(-c2ccc(-c3nnc(SCc4nnn[nH]4)[nH]3)o2)c1` [Compound 3-2], for which, under setting [1], the IC50 turned out to be 545 nM. On to `O=C(O)CSc1nnc(-c2ccc(-c3cccc(C(F)(F)F)c3)o2)[nH]1` [Compound 1-56], for which the IC50 under setting [2] was found to be 595 nM. In the case of `O=C(O)CSc1nnc(-c2csc3ccccc23)[nH]1` [Compound 4-7], the IC50 under setting [3] stood at 2560 nM. Regarding `COc1cc(Cl)cc(-c2ccc(-c3cc(SCC(=O)O)n[nH]3)o2)c1` [Compound 2-1], under setting [4], the IC50 worked out at 309 nM.

For the compound `c1cc2ccc(-c3ccc(-c4nnc(SCc5nnn[nH]5)[nH]4)o3)cc2[nH]1` [Compound 3-12], the IC50 under setting [1] worked out at 1580 nM. Take `O=C(O)CSc1nnc(-c2c[nH]c3ccccc23)[nH]1` [Compound 4-49]: the IC50 under setting [3] was over 100000 nM. Regarding `O=C(O)CSc1nnc(-c2ccc(-c3ccc([N+](=O)[O-])cc3)o2)[nH]1` [Compound 1-82], the IC50 under setting [2] came out at 1310 nM. As to `O=C(O)CSc1nnc(-c2ccc(-c3ccc4nccnc4c3)o2)[nH]1` [Compound 1-79], the IC50 under setting [2] amounted to 1170 nM. For the compound `O=C(O)CSc1nnc(-c2ccc(Br)o2)[nH]1` [Compound 1-97], under setting [2], the 50% inhibitory concentration (IC50) stood at 3330 nM.

In the case of `Cc1c(-c2nnc(SCC(=O)O)[nH]2)cnn1C` [Compound 4-38], under setting [3], the IC50 stood at 95400 nM. `COc1ccc(-c2ccc(-c3nnc(SCC(=O)O)[nH]3)o2)cn1` [Compound 1-88]: under setting [2], the IC50 was found to be 1820 nM. For `O=C(O)CSc1nnc(-c2ccc(-c3ccc[nH]3)o2)[nH]1` [Compound 1-80], the half-inhibitory concentration (IC50) under setting [2] amounted to 1210 nM. Regarding `O=C(O)CSc1nnc(-c2ccc(C#Cc3ccc4ccccc4c3)o2)[nH]1` [Compound 1-19, 2-((5-(5-(naphthalen-2-ylethynyl)furan-2-yl)-4H-1,2,4-triazol-3-yl)thio)acetic acid], the IC50 under setting [2] came out at 259 nM. Consider `CN(C)c1ncc(-c2nnc(SCC(=O)O)[nH]2)cn1` [Compound 4-17], for which the IC50 under setting [3] was 7100 nM. `O=C(O)CSc1nnc(-c2ccc3cccnc3n2)[nH]1` [Compound 4-45]: under setting [3], the IC50 was over 86000 nM. On to `Cc1cccc(-c2nnc(SCc3nnn[nH]3)[nH]2)c1` [Compound 3-35, 5-(((5-(m-tolyl)-1H-1,2,4-triazol-3-yl)thio)methyl)-1H-tetrazole], for which the IC50 under setting [1] was found to be 16900 nM. On to `COc1ccc(-c2ccc(-c3nnc(SCC(=O)O)[nH]3)o2)cc1OCc1ccccc1` [Compound 1-54], for which, under setting [2], the IC50 came out at 516 nM. `COc1ccc2cc(-c3ccc(-c4cc(SCC(=O)O)n[nH]4)s3)ccc2c1` [Compound 2-6]: the IC50 under setting [4] turned out to be 721 nM. For the compound `O=C(O)CSc1nnc(-c2ccc(-c3cccc(OCc4ccccc4)c3)o2)[nH]1` [Compound 1-23], the IC50 under setting [2] came out at 273 nM.

For the compound `Cc1csc2sc(-c3nnc(SCC(=O)O)[nH]3)c(C)c12` [Compound 4-29], under setting [3], the IC50 stood at 27300 nM. Take `O=C(O)CSc1nnc(-c2cnn(-c3cccc(Cl)c3)c2)[nH]1` [Compound 4-6, 2-((5-(1-(3-chlorophenyl)-1H-pyrazol-4-yl)-4H-1,2,4-triazol-3-yl)thio)acetic acid]: under setting [3], the IC50 came to 2010 nM. For `Cn1c2ccccc2c2ccc(-c3ccc(-c4cc(SCC(=O)O)n[nH]4)o3)cc21` [Compound 2-8], the IC50 under setting [4] was found to be 1250 nM. Turning to `Cn1c2ccccc2c2ccc(-c3ccc(-c4nnc(SCC(=O)O)[nH]4)o3)cc21` [Compound 1-12], under setting [2], the IC50 turned out to be 189 nM.

With `O=C(O)CSc1nnc(-c2cccnc2N2CCOCC2)[nH]1` [Compound 4-41], the concentration for half-maximal inhibition (IC50) under setting [3] was over 100000 nM. Regarding `COc1ccc(/C=C/c2ccc(-c3nnc(SCC(=O)O)[nH]3)o2)cc1` [Compound 1-53], the IC50 under setting [2] turned out to be 514 nM.

Consider `Nc1ncc(-c2nnc(SCC(=O)O)[nH]2)cn1` [Compound 4-21], for which, under setting [3], the IC50 is 9610 nM.

Take `COc1ccc2cc(-c3cc(SCC(=O)O)n[nH]3)ccc2c1` [Compound 2-10]: the IC50 under setting [4] is 1470 nM. Regarding `O=C(O)CSc1nnc(-c2ccc(-c3cccc(OCc4ccc(Cl)c(Cl)c4)c3)o2)[nH]1` [Compound 1-40], the IC50 under setting [2] amounted to 367 nM. Regarding `O=C(O)CSc1cc(-c2ccc(-c3ccc(Cl)c(Cl)c3)o2)[nH]n1` [Compound 2-3], the IC50 under setting [4] amounted to 475 nM. For the compound `Cc1nn(C)cc1-c1ccc(-c2nnc(SCC(=O)O)[nH]2)o1` [Compound 1-96], the IC50 under setting [2] worked out at 3310 nM.

Consider `O=C(O)CSc1nnc(-c2ccc(-c3ccc4[nH]ccc4c3)o2)[nH]1` [Compound 1-35], for which the IC50 under setting [2] is 347 nM.

`O=C(O)CSc1nnc(-c2c[nH]nc2-c2ccccc2)[nH]1` [Compound 4-15]: under setting [3], the IC50 was 6290 nM. `O=C(O)CSc1nnc(-c2ccc(-c3cc(Cl)cc(OCc4ccccc4)c3)o2)[nH]1` [Compound 1-20]: the IC50 under setting [2] came out at 260 nM. In the case of `O=C(O)CSc1nnc(-c2cnn(-c3ccccc3)c2)[nH]1` [Compound 4-3], under setting [3], the IC50 stood at 1010 nM.

On to `c1ccc(-c2ccc(-c3nnc(SCc4nnn[nH]4)[nH]3)o2)cc1` [Compound 3-28], for which the IC50 under setting [1] is 6210 nM. For the compound `CCc1n[nH]cc1-c1nnc(SCC(=O)O)[nH]1` [Compound 4-19], the IC50 under setting [3] is 8960 nM. Regarding `COc1ccc2c(-c3nnc(SCC(=O)O)[nH]3)c[nH]c2c1` [Compound 4-27], under setting [3], the IC50 is 20700 nM.

For `O=C(O)CSc1nnc(-c2ccc3ccccc3n2)[nH]1` [Compound 4-25], the IC50 under setting [3] came to 13000 nM. Take `O=C(O)CSc1cc(-c2ccc(-c3ccc4c(c3)[nH]c3ccccc34)o2)[nH]n1` [Compound 2-9]: under setting [4], the IC50 worked out at 1290 nM. Turning to `COc1cc(Cl)cc(-c2ccc(-c3nnc(SCC(=O)O)[nH]3)o2)c1` [Compound 1-8], under setting [2], the IC50 was 170 nM. For `O=C(O)CSc1cc(-c2ccc(-c3ccc4ccccc4c3)s2)[nH]n1` [Compound 2-7], under setting [4], the IC50 is 788 nM. `O=C(O)CSc1nnc(-c2cc3cccc4c3n(c2=O)CC4)[nH]1` [Compound 4-42]: the IC50 under setting [3] is over 100000 nM. As for `O=C(O)CSc1nnc(-c2ccc(-c3ccccc3)o2)[nH]1` [Compound 1-73], the IC50 under setting [2] is 996 nM. Still for that read-out and setting: as for `Cn1ccc2cc(-c3ccc(-c4nnc(SCC(=O)O)[nH]4)o3)ccc21` [Compound 1-61], the figure is 635 nM; as for `O=C(O)CSc1nnc(-c2ccc(-c3ccc4cc[nH]c4c3)o2)[nH]1` [Compound 1-46], 421 nM. For `COc1ccc(-c2ccc(-c3nnc(SCC(=O)O)[nH]3)o2)cc1C=O` [Compound 1-17], the IC50 under setting [2] was 245 nM. For the compound `COc1ccc(C(F)(F)F)cc1-c1ccc(-c2nnc(SCc3nnn[nH]3)[nH]2)o1` [Compound 3-9], under setting [1], the IC50 was 1280 nM. With `Nc1cc(-c2ccc(-c3nnc(SCC(=O)O)[nH]3)o2)ccn1` [Compound 1-92, 2-((5-(5-(2-aminopyridin-4-yl)furan-2-yl)-4H-1,2,4-triazol-3-yl)thio)acetic acid], under setting [2], the IC50 turned out to be 2170 nM.

Consider `FC(F)(F)c1cc(-c2ccc(-c3nnc(SCc4nnn[nH]4)[nH]3)o2)ccc1Cl` [Compound 3-19], for which the IC50 under setting [1] was 3570 nM. In the case of `O=C(O)CSc1nnc(-c2ccc(-c3ccc4cc(-c5ccccc5)[nH]c4c3)o2)[nH]1` [Compound 1-22], under setting [2], the IC50 was found to be 269 nM.

As for `O=C(O)CSc1nnc(-c2ccc(-c3ccccc3[N+](=O)[O-])o2)[nH]1` [Compound 1-95], under setting [2], the IC50 came out at 3180 nM.

As for `O=C(O)CSc1nnc(-c2ccc(-c3cc4ccccc4o3)o2)[nH]1` [Compound 1-32], the IC50 under setting [2] was found to be 327 nM. Consider `Cn1ccc2c(-c3ccc(-c4nnc(SCC(=O)O)[nH]4)o3)cccc21` [Compound 1-87], for which the IC50 under setting [2] worked out at 1800 nM.
